{"source": "PubChem BioAssay AID1996"}
{"settings": "buffer; pH 7.4; 200.0 µM", "units": {"solubility kinetic": "µg/mL"}}
{"smiles": "CCN(CC)C(=O)CSC(Nc1cccc(F)c1)=C(C#N)C#N", "solubility kinetic": "> 49.9"}
{"smiles": "O=C(COC(=O)Cc1ccccc1F)NCc1ccc(Cl)cc1", "solubility kinetic": 17.5}
{"smiles": "Nc1ccc(-c2nc3ccccc3o2)cc1", "solubility kinetic": 20.8}
{"smiles": "CCc1ccc(C(=O)NC(CCSC)C(=O)OC)cc1", "note": "(stereo not given)", "solubility kinetic": "> 44.3"}
{"smiles": "O=C1CNC(=S)N1Cc1ccc(Cl)cc1", "solubility kinetic": "> 36.1"}
{"smiles": "Cc1c(O)ccc(C(=O)CN2CCN(c3ccccc3)CC2)c1O", "solubility kinetic": 12}
{"smiles": "Cc1sc2ncnc(SCC(=O)Nc3cccc(S(N)(=O)=O)c3)c2c1C", "solubility kinetic": 5.3}
{"smiles": "N#Cc1c(NCCO)ccc([N+](=O)[O-])c1NCCO", "solubility kinetic": "> 39.9"}
{"smiles": "O=C(NCCc1cccc(Cl)c1)c1ccc2c(c1)OCO2", "solubility kinetic": 5.8}
{"smiles": "O=C(Cc1ccccc1)NCC(=O)N1CCN(Cc2cccc(Cl)c2)CC1", "solubility kinetic": "> 57.9"}
{"smiles": "O=C(COC(=O)/C=C/c1ccc2c(c1)OCO2)NCc1ccccc1", "solubility kinetic": 1.5}
{"smiles": "CC(C)CC(=O)N/C(N)=N/c1nc2ccccc2o1", "solubility kinetic": 1.3}
{"smiles": "CCCc1cc(=S)n2c([nH]c3ccccc32)c1C#N", "solubility kinetic": 16.4}
{"smiles": "CC(C)CC(=O)Nc1ccc(C(=O)Nc2cccc(O)c2)cc1", "solubility kinetic": 26.7}
{"smiles": "CC(=O)C1=C(O)C(=O)N(c2ccccn2)C1c1ccccc1[N+](=O)[O-]", "note": "(stereo not given)", "solubility kinetic": "> 50.9"}
{"smiles": "N/C(=N/OC(=O)c1cccc([N+](=O)[O-])c1)c1cccc([N+](=O)[O-])c1", "solubility kinetic": 0.5}
{"smiles": "Cc1ccc(Cl)cc1NC(=O)CCCN1C(=O)c2cccnc2C1=O", "solubility kinetic": "> 53.7"}
{"smiles": "CCCCc1c(C)nc2c(OC)cccc2c1SCC(=O)O", "solubility kinetic": "> 47.9"}
{"smiles": "O=C1CN(c2ccc(F)cc2)C(=S)N1c1ccccc1", "solubility kinetic": 8.5}
{"smiles": "CC(=O)Nc1ccc(-c2cc(C(=O)O)c3ccc(C)cc3n2)cc1", "solubility kinetic": "> 48.1"}
{"smiles": "COc1cc2ccccc2cc1C(=O)Nc1cc(C)ccn1", "solubility kinetic": 4.2}
{"smiles": "O=Cc1ccc(C(=O)OCC(=O)NCc2ccco2)cc1", "solubility kinetic": "> 43.1"}
{"smiles": "Cc1ccc(S(=O)(=O)NCc2cn3ccccc3n2)c(C)c1", "solubility kinetic": 8.9}
{"smiles": "Cc1ccccc1C(=O)N1CCC(C(=O)NC2CCCC2)CC1", "solubility kinetic": 38.6}
{"smiles": "Cc1ccc(CC(=O)NCC(O)c2ccccc2)cc1", "note": "(stereo not given)", "solubility kinetic": 33.4}
{"smiles": "Cn1c2c(c3cc([N+](=O)[O-])ccc31)CCCC2", "solubility kinetic": "< 0.2"}
{"smiles": "COc1ccc(C(=O)NCC(=O)OCC(=O)NCc2cccs2)cc1", "solubility kinetic": "> 54.4"}
{"smiles": "Fc1ccc(F)c(NC2=NCCCCC2)c1", "solubility kinetic": "> 33.6"}
{"smiles": "CCCOc1ccc(CSC(=N)N)cc1C(=O)OC.Cl", "solubility kinetic": 42.6}
{"smiles": "Cc1cc(C(=O)Nc2nncs2)oc1C", "solubility kinetic": "> 33.5"}
{"smiles": "c1ccc(-c2ccc(-c3ccccn3)s2)nc1", "solubility kinetic": 4.2}
{"smiles": "CCOc1cc(C)c(S(=O)(=O)NCc2ccccn2)cc1C", "solubility kinetic": "> 48.1"}
{"smiles": "Cc1sc2c(c1C)C(=O)/C(=C\\Nc1ccccn1)S(=O)(=O)N2C", "solubility kinetic": "< 0.2"}
{"smiles": "COc1ccc(CCNC(=O)COc2ccc3c(C)cc(=O)oc3c2)cc1", "solubility kinetic": 6}
{"smiles": "O=C(COC(=O)COc1ccc(Br)cc1)NCc1ccc2c(c1)OCO2", "solubility kinetic": 8.4}
{"smiles": "O=C(NCC(=O)N1CCN(c2ccccc2F)CC1)c1ccco1", "solubility kinetic": "> 49.7"}
{"smiles": "COc1ccc(/C=C/C(=O)NC(=S)N2CCN(C)CC2)cc1", "solubility kinetic": "> 47.9"}
{"smiles": "Oc1ccc(C=NC2CCCCC2)cc1", "solubility kinetic": 16.6}
{"smiles": "COC(=O)N1c2ccccc2C=Cc2ccccc21", "solubility kinetic": "> 37.7"}
{"smiles": "COc1ccc(NC(=O)C(C)SCc2ccccc2)cc1", "note": "(stereo not given)", "solubility kinetic": 40.9}
{"smiles": "C=CCn1c2[n+](c3ccccc3c1=O)CCCCC2.[I-]", "solubility kinetic": 41.6}
{"smiles": "C=CCNC(=O)CN1c2cccc3cccc(c23)S1(=O)=O", "solubility kinetic": 40.4}
{"smiles": "O=c1[nH]c(=S)n(-c2ccccc2)c(O)c1C=NCc1ccccn1", "solubility kinetic": "> 50.8"}
{"smiles": "O=C(COC(=O)c1cccc(S(=O)(=O)NCc2ccccc2)c1)NC1CC1", "solubility kinetic": 15.2}
{"smiles": "COc1ccc(C(=O)NC(=O)COC(=O)c2ccc(C)o2)cc1", "solubility kinetic": 7}
{"smiles": "Cc1ccnc(NC(=O)CNC(=O)c2ccccc2)c1", "solubility kinetic": "> 40.4"}
{"smiles": "CC(C)c1cc(NCCOCCO)n2c(nc3ccccc32)c1C#N", "solubility kinetic": 7.8}
{"smiles": "CCC(Cc1ccccc1)NC(=O)C1CC1", "note": "(stereo not given)", "solubility kinetic": "> 32.6"}
{"smiles": "Cc1csc(NC(=O)Cc2c(F)cccc2Cl)n1", "solubility kinetic": 36.4}
{"smiles": "O=C(COC(=O)C1(c2ccc(Cl)cc2)CCCC1)NCc1ccco1", "solubility kinetic": 20.7}
{"smiles": "Oc1ccccc1C=NCCN=Cc1ccccc1O", "solubility kinetic": 27.6}
{"smiles": "COc1ccc(C2(O)C(=O)Nc3ccc(C)cc32)cc1OC", "note": "(stereo not given)", "solubility kinetic": "> 44.9"}
{"smiles": "COc1ccc(NC(=O)[C@@H]2CCCN2S(=O)(=O)c2ccccc2F)cc1S(=O)(=O)N1CCCCC1", "solubility kinetic": 37.1}
{"smiles": "O=C(NCc1ccccn1)C(=O)NCC(c1ccco1)N1CCOCC1", "note": "(stereo not given)", "solubility kinetic": "> 53.8"}
{"smiles": "O=C(NCCCl)Nc1ccccc1NS(=O)(=O)c1cccs1", "solubility kinetic": "> 54"}
{"smiles": "Cc1cccc(CC(=O)N2CCOCC2)c1", "solubility kinetic": "> 32.9"}
{"smiles": "CCOC(=O)C1CCN(C(=O)c2cccnc2Oc2ccccc2)CC1", "solubility kinetic": 50.9}
{"smiles": "COc1ccc(NC(=O)CNC(=O)C2CCCCC2)cc1OC", "solubility kinetic": "> 48.1"}
{"smiles": "CC(C)(C)c1ccc(C(=O)N2CCC(C(=O)NC3CC3)CC2)cc1", "solubility kinetic": 48}
{"smiles": "COc1ccccc1NC(=O)NC1(C(=O)N2CCCCC2)CCCCC1", "solubility kinetic": 10}
{"smiles": "Cc1csc(SCC(=O)Nc2ccc(F)cc2Cl)n1", "solubility kinetic": "> 47.5"}
{"smiles": "COc1ccc(S(=O)(=O)NC(C)C(=O)N2CCCC2)cc1C", "note": "(stereo not given)", "solubility kinetic": 41.9}
{"smiles": "O=C(COC(=O)c1cnc(Cl)c(Cl)c1)Nc1cccc(S(=O)(=O)N2CCOCC2)c1", "solubility kinetic": 38.9}
{"smiles": "CCn1ccnc1CN1CCCC(C(=O)c2cc(C)c(OC)c(C)c2)C1", "note": "(stereo not given)", "solubility kinetic": 47.6}
{"smiles": "COc1ccc(-c2cn3ccc(C)cc3n2)cc1", "solubility kinetic": 33.1}
{"smiles": "Cc1cc(C)c(C)c(S(=O)(=O)N[C@@H](C)C(=O)OCC(N)=O)c1C", "solubility kinetic": "> 51.4"}
{"smiles": "COc1ccc(C(C)=O)cc1CSc1nnc(-c2ccncc2)n1C", "solubility kinetic": "> 53.2"}
{"smiles": "COc1ccc(C)cc1NC(=O)COC(=O)c1ccc([N+](=O)[O-])o1", "solubility kinetic": 3.4}
{"smiles": "O=C(NC1CC2CCCC(C1)N2Cc1ccc(F)cc1)c1ccc(F)cc1", "note": "(stereo not given)", "solubility kinetic": "> 55.6"}
{"smiles": "Cc1ccc(SCC(=O)N2CCN(S(=O)(=O)c3cccs3)CC2)cc1", "solubility kinetic": 18.4}
{"smiles": "Cc1cc(Nc2ccc(N3CCOCC3)cc2)c2cccc(C)c2n1.Cl", "solubility kinetic": 55}
{"smiles": "CNc1nc2cccnc2s1", "solubility kinetic": "> 24.8"}
{"smiles": "Cc1ccc(CN2CCC(N3CC(C)OC(C)C3)CC2)cc1.Cl", "note": "(stereo not given)", "solubility kinetic": 31.8}
{"smiles": "Nc1ccccc1-n1c(=O)n(Cc2ccccc2F)c(=O)c2[nH]cnc21", "solubility kinetic": 35}
{"smiles": "CC1CC(=O)Nc2ccccc2N1C(=O)Nc1ccc(F)cc1F", "note": "(stereo not given)", "solubility kinetic": "> 49.7"}
{"smiles": "Cc1cc(C)c(S(=O)(=O)N2CCc3ccccc32)c(C)c1", "solubility kinetic": "< 0.6"}
{"smiles": "CO/N=C(\\c1ccccc1)c1cccnc1", "solubility kinetic": 23.2}
{"smiles": "CC(=O)O.CN1CCCC(CN2c3ccccc3Sc3ccccc32)C1", "note": "(stereo not given)", "solubility kinetic": "> 55.6"}
{"smiles": "CCc1ccc(CN2CCSCC2)cc1", "solubility kinetic": 8.5}
{"smiles": "Cc1nc(-c2noc(-c3ccc(Cl)cc3)n2)c(C(F)(F)F)o1", "solubility kinetic": "< 0.2"}
{"smiles": "CCCCN(C(=O)C1CCCO1)c1c(N)n(CCC)c(=O)[nH]c1=O", "note": "(stereo not given)", "solubility kinetic": "> 50.8"}
{"smiles": "Cc1cnc([N+](=O)[O-])n1CCOC(=O)NC(=O)c1c(F)cccc1F", "solubility kinetic": "> 53.1"}
{"smiles": "Cc1c(Br)ccc(NC(=O)COc2ccccc2C(N)=O)c1C", "solubility kinetic": "< 0.4"}
{"smiles": "CN(Cc1ccccc1)S(=O)(=O)c1ccccc1[N+](=O)[O-]", "solubility kinetic": 15.3}
{"smiles": "Cc1cccc(CC2CC(=O)N(CCc3ccc4c(c3)OCO4)C2=O)c1", "note": "(stereo not given)", "solubility kinetic": 11.5}
